According to ChEMBL document CHEMBL1201862, “PubChem BioAssay data set” (2004):
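Values below derive from 48-hour exposures of cells grown in 96-well plates, with endpoints linearly interpolated between the two concentrations bracketing the appropriate inhibition level. GI50 is the concentration that inhibits growth by half.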 The source made the active and inactive calls. Cut-off read from the data, not from the text of the source: active = GI50 up to about 1.1 µM and inactive = higher. Starred links: 1 amine or outer side, 2 acyl side, 3 side chain; linkers in the order of their positions; H or OH if unused. Positions of bridges follow the written chain, without caps; N, C: chain ends. Non-standard residues stand in square brackets, D forms with d. Residues, ends and D or L forms follow the SMILES beside them. Chains are numbered I, II in the order given. ξ: configuration not given here. X42 = N=C(N)NCCC[C@H](NC(=N)CCCCCCC(=N)N[C@@H](CCCNC(=N)N)C(=O)[*:2])C(=O)[*:1]; Oic(3aξ,7aξ) = O=C(O)[C@@H]1CC2CCCCC2N1; Igl = N[C@H](C(=O)O)C1Cc2ccccc2C1; Hyp = O=C(O)[C@@H]1C[C@@H](O)CN1

Tests used:
Assay in all cases: DTP human tumour cell line panel, 48 h
[1] = system: T47D
[2] = system: Hs-578T
[3] = system: DU-145
[4] = system: BT-549
[5] = system: MDA-N

| SMILES | GI50 [1] | GI50 [2] | GI50 [3] | GI50 [4] | GI50 [5] |
| --- | --- | --- | --- | --- | --- |
| CCCCCCCCC[C@@H]1C[C@@H]2CCC3C(C(=O)OC)=C(C)N=C(N1)N32 (some centres undefined) | 10.6 µM (inactive) | 4.66 µM (inactive) | 6.41 µM (inactive) | 10.6 µM (inactive) | – |
| CCC(=O)NI1OC(=O)c2ccccc21 | > 100 µM (inactive) | – | > 100 µM (inactive) | > 100 µM (inactive) | – |
| N#Cc1c2c(c(Nc3ccc(F)cc3)n3c1nc1ccccc13)CCC2 | 7.8 µM (inactive) | – | 3.61 µM (inactive) | 7.19 µM (inactive) | 3.47 µM (inactive) |
| CCc1nc(N)nc(N)c1-c1ccc([N+](=O)[O-])c(Cl)c1 | 39.5 µM (inactive) | 32.4 µM (inactive) | 10.8 µM (inactive) | 14.9 µM (inactive) | – |
| S=C(NN=C1NCCCCN1)Nc1ccc(Cl)cc1 | 39.8 µM (inactive) | 60 µM (inactive) | – | 64.3 µM (inactive) | 11.4 µM (inactive) |
| CCOS(C)(=O)=O [METHANESULFONIC ACID ETHYL ESTER] | > 100 µM (inactive) | > 100 µM (inactive) | > 100 µM (inactive) | > 100 µM (inactive) | > 100 µM (inactive) |
| O=[N+]([O-])c1ccc(C2c3c(O)nc(S)nc3Oc3nc(S)nc(O)c32)cc1 | > 100 µM (inactive) | > 100 µM (inactive) | > 100 µM (inactive) | > 100 µM (inactive) | > 100 µM (inactive) |
| N=C(N)NCCC[C@H](NC(=O)[C@@H]1CC2CCCCC2N1C(=O)[C@@H](NC(=O)[C@H](CO)NC(=O)[C@@H](NC(=O)CNC(=O)[C@@H]1CCCN1C(=O)[C@H](CCCNC(=N)N)NC(=O)[C@H](CCCNC(=N)N)NC(=N)CCCCCCC(=N)N[C@@H](CCCNC(=N)N)C(=O)N[C@@H](CCCNC(=N)N)C(=O)N1CCC[C@H]1C(=O)N1C[C@H](O)C[C@H]1C(=O)NCC(=O)N[C@H](C(=O)N[C@@H](CO)C(=O)N[C@H](C(=O)N1C2CCCCC2C[C@H]1C(=O)N[C@@H](CCCNC(=N)N)C(=O)O)C1Cc2ccccc2C1)C1Cc2ccccc2C1)C1Cc2ccccc2C1)C1Cc2ccccc2C1)C(=O)O (some centres undefined) (I: RP[Hyp]G[Igl]S[Igl][Oic(3aξ,7aξ)]R-OH / II: RPG[Igl]S[Igl][Oic(3aξ,7aξ)]R-OH; linker I:N-II:N via X42) | 2.19 µM (inactive) | 2.91 µM (inactive) | 1.64 µM (inactive) | – | 2.08 µM (inactive) |
| CCC(=O)C(CCN1CCC(N2C(=O)C(CCC#N)c3ccccc32)CC1)(c1ccccc1)c1ccccc1 (centres undefined) | 7.85 µM (inactive) | 9.57 µM (inactive) | 12.2 µM (inactive) | 13.3 µM (inactive) | – |
| CC(C)=CC1C(COC(=O)c2cc3c(cc2Cl)OCO3)C1(C)C (centres undefined) | 39.1 µM (inactive) | 13.1 µM (inactive) | 28.4 µM (inactive) | 33 µM (inactive) | 29.5 µM (inactive) |
| Cc1cc(C)c(C2CC(O)C(CO)O2)cc1C (centres undefined) | – | > 100 µM (inactive) | – | > 100 µM (inactive) | > 100 µM (inactive) |
| S=C(Nc1ccccc1)c1ccc(CN2CCCCC2)s1 | 26.4 µM (inactive) | 25.3 µM (inactive) | 60.1 µM (inactive) | 21.4 µM (inactive) | 17.5 µM (inactive) |
| Cc1ccc(/S(Cc2ccccc2)=N\S(=O)(=O)c2ccc(C)cc2)cc1 (centres undefined) | > 100 µM (inactive) | – | > 100 µM (inactive) | > 100 µM (inactive) | > 100 µM (inactive) |
| O=[N+]([O-])c1ccc2c(c1)C1=C(CO2)Cc2ccccc2O1 | 10.9 µM (inactive) | – | 33.9 µM (inactive) | 28.8 µM (inactive) | 17.9 µM (inactive) |
| Nc1nc(-c2cccs2)cs1 | 66.8 µM (inactive) | 37.9 µM (inactive) | > 100 µM (inactive) | 95.5 µM (inactive) | 45.7 µM (inactive) |
| Cc1cn2c(C)csc2c1P(=O)(OC(C)C)OC(C)C | – | > 100 µM (inactive) | > 100 µM (inactive) | > 100 µM (inactive) | > 100 µM (inactive) |
| CCOP(=O)(O)C1C(CO)OC(n2ccc(=O)[nH]c2=O)C1O (centres undefined) | > 100 µM (inactive) | > 100 µM (inactive) | – | > 100 µM (inactive) | > 100 µM (inactive) |
| CCOC(=O)c1csc(NC(=O)CN2CCOCC2)n1 | > 100 µM (inactive) | > 100 µM (inactive) | > 100 µM (inactive) | – | > 100 µM (inactive) |
| CC(=O)OC1CC[C@@]2(C)C(=CC[C@@H]3[C@@H]2CC[C@]2(C)Nc4c(cnn4-c4ccc(F)cc4)C[C@@H]32)C1 (some centres undefined) | 14.9 µM (inactive) | 14.1 µM (inactive) | 45.5 µM (inactive) | 17.3 µM (inactive) | 39.2 µM (inactive) |
| CNCCCNC(=S)Cn1cc(C)c(=O)[nH]c1=O | > 100 µM (inactive) | > 35.1 µM (inactive) | > 52.2 µM (inactive) | > 61.9 µM (inactive) | > 100 µM (inactive) |
| Nc1c(-c2ccccc2)c2ccc([N+](=O)[O-])cc2c(=O)n1-c1cccc(C(=O)O)c1 | > 100 µM (inactive) | 61.2 µM (inactive) | > 100 µM (inactive) | 51.9 µM (inactive) | > 100 µM (inactive) |
| CO[C@@]12C[C@@H](CNC(=O)c3cc(Br)c[nH]3)O[C@@H]1NC(=O)N2 | > 100 µM (inactive) | > 100 µM (inactive) | > 100 µM (inactive) | > 100 µM (inactive) | – |
| COC(=O)C12CCCN1CCC2 | > 100 µM (inactive) | – | > 100 µM (inactive) | > 100 µM (inactive) | > 100 µM (inactive) |

| SMILES | GI50 [1] | GI50 [2] | GI50 [3] | GI50 [4] | GI50 [5] |
| --- | --- | --- | --- | --- | --- |
| COC(=O)/C=C(C)/C=C\COC1CCCCO1 (centres undefined) | > 100 µM (inactive) | > 100 µM (inactive) | > 100 µM (inactive) | > 100 µM (inactive) | > 100 µM (inactive) |
| COc1ccc(/N=C2/C(=N/c3ccc(OC)cc3)N(c3ccccc3)C(=S)N2N=C=C2Sc3ccccc3N2C)cc1 | > 100 µM (inactive) | > 100 µM (inactive) | > 100 µM (inactive) | > 100 µM (inactive) | > 100 µM (inactive) |
| O=C1/C(=C/c2ccc(O)c(O)c2)CC/C1=C\c1ccc(O)c(O)c1 | 4.66 µM (inactive) | – | 9.46 µM (inactive) | 5.04 µM (inactive) | 4.61 µM (inactive) |
| O=C(OC1C=C=CS(=O)(=O)CC#C/C=C\1)c1cnc2ccccc2n1 (centres undefined) | > 100 µM (inactive) | > 100 µM (inactive) | > 100 µM (inactive) | > 100 µM (inactive) | 52 µM (inactive) |
| CCOC(=O)/C(=C\c1cccc(C)c1)C(C)=O | 11.1 µM (inactive) | 20.7 µM (inactive) | 16.7 µM (inactive) | 10.8 µM (inactive) | 12.7 µM (inactive) |
| Cc1c(OCc2cccc3ccccc23)ccc2c(=O)cc(SCCN3CCOCC3)oc12 | > 100 µM (inactive) | > 100 µM (inactive) | > 100 µM (inactive) | > 100 µM (inactive) | – |
| COc1cc2c(cc1O)C(=O)O[C@@H]1CC=C3CCN(C)[C@H]3[C@H]21 | > 25 µM (inactive) | > 25 µM (inactive) | > 25 µM (inactive) | > 25 µM (inactive) | > 25 µM (inactive) |
| O=C1NC(N2CCOCC2)=N/C1=C\c1ccc(O)cc1 | > 100 µM (inactive) | 4.84 µM (inactive) | > 100 µM (inactive) | > 100 µM (inactive) | > 100 µM (inactive) |
| O=C(CC(O)(C(F)(F)F)C(F)(F)F)C(CCCl)C(O)(C(F)(F)F)C(F)(F)F (centres undefined) | 26 µM (inactive) | 67.6 µM (inactive) | 39.7 µM (inactive) | – | > 100 µM (inactive) |
| CC1(C)[C@@H]2CC[C@@]1(C)CN(CCC[N+](C)(C)C)C2 | > 100 µM (inactive) | > 100 µM (inactive) | > 100 µM (inactive) | > 100 µM (inactive) | > 100 µM (inactive) |
| O=C(O)C1C(=O)Oc2c(cccc2[N+](=O)[O-])C1O (centres undefined) | > 100 µM (inactive) | > 100 µM (inactive) | > 100 µM (inactive) | > 100 µM (inactive) | > 100 µM (inactive) |
| c1ccc2c(Cc3c[nH]c4ccccc34)c[nH]c2c1 [ARUNDINE] | 15.8 µM (inactive) | 41.3 µM (inactive) | 18.2 µM (inactive) | 18.2 µM (inactive) | 19.2 µM (inactive) |
| CC(=O)NC1C(Sc2ncn(C3OC(CO)C(O)C(O)C3NC(C)=O)n2)OC(CO)C(O)C1O (centres undefined) | > 100 µM (inactive) | > 100 µM (inactive) | > 100 µM (inactive) | > 100 µM (inactive) | > 100 µM (inactive) |
| N#Cc1c(=O)c2cc([N+](=O)[O-])ccc2n2c1[nH]c1ccccc12 | 4.44 µM (inactive) | 3.44 µM (inactive) | 8.05 µM (inactive) | 9.08 µM (inactive) | 15 µM (inactive) |
| N#Cc1c(-c2ccc([N+](=O)[O-])cc2)cc(-c2ccc(Nc3ccnc4cc(C(F)(F)F)ccc34)cc2)nc1N | 7.89 µM (inactive) | 24.5 µM (inactive) | 13.1 µM (inactive) | 37.2 µM (inactive) | 9.77 µM (inactive) |
| COc1ccc(/C=C/C(=O)Oc2cc(O)cc(O)c2)cc1 | 43.5 µM (inactive) | – | 56.6 µM (inactive) | 49.8 µM (inactive) | 58.5 µM (inactive) |
| O=C1N/C(=N/N=C/c2ccccc2)N/C1=C\c1c[nH]c2ccccc12 | > 100 µM (inactive) | > 100 µM (inactive) | > 100 µM (inactive) | > 100 µM (inactive) | > 100 µM (inactive) |
| CC12CC(=O)C3C(CCC4=CC(=O)CCC43C)C1CC=C2CC(=O)O (centres undefined) | > 100 µM (inactive) | > 100 µM (inactive) | > 100 µM (inactive) | > 100 µM (inactive) | > 100 µM (inactive) |
| Cn1c(=O)c2c(nc(Nc3ccc(Cl)cc3)n3c(=O)n(-c4ccccc4)c(=O)n23)n(C)c1=O | > 100 µM (inactive) | > 100 µM (inactive) | > 100 µM (inactive) | > 100 µM (inactive) | > 100 µM (inactive) |
| O=c1[nH]c(=O)n(COCc2ccccc2)c2ccccc12 | – | – | > 100 µM (inactive) | – | 83 µM (inactive) |
| CCCC(=O)NC1CCc2cc(OC)c(OC)c(OC)c2-c2ccc(OC)c(=O)cc21 (centres undefined) | – | 0.000237 µM (active) | 0.00117 µM (active) | 0.01 µM (active) | 0.000335 µM (active) |
| CCCCCCc1cc2cc(C(=O)Nc3ccc(F)cc3)c(=N)oc2cc1O | – | 0.9 µM (active) | 2.71 µM (inactive) | 2.66 µM (inactive) | 3.57 µM (inactive) |
